Values after ≈ are worked out from the molar mass of the structure shown. Values joined by “and” are separate entries in the source; they are usually repeats but may differ in a detail not shown here. Equal entries are not always repeated. Where two headings read alike, the source gives them in different places. Marks after values point to notes of the source that are not given here.
How the values were obtained:
[1] = test system: chloroquine-resistant K1 strain of P. falciparum; experiment: in vitro screen against chloroquine-resistant K1 strain of P. falciparum; format: cell-based; conditions: for IC50: Plasmodium falciparum
[2] = test system: chloroquine-sensitive NF54 strain of P. falciparum; experiment: in vitro screen against chloroquine-sensitive NF54 strain of P. falciparum; format: cell-based; conditions: for IC50: Plasmodium falciparum
[3] = test system: ANKA strain of P. Berghei; experiment: single dose STI in vivo screen in infected Moro SPF mice; conditions: for inhibition in vivo at 10 mg/kg / inhibition in vivo at 100 mg/kg: Plasmodium berghei, 72 h; for inhibition in vivo at 10 mg/kg / inhibition in vivo at 100 mg/kg / Activity (%) po / Activity (%) sc: percent reduction in parasitemia day 3 post-infection; for antimalarial activity, overall assessment: overall judgement of in vitro and in vivo data of Table 2
[4] = test system: P. berghei; experiment: 1-day Peters test against P. berghei in vivo; conditions: for ED50 / ED90: Plasmodium berghei, 24 h; for P. berghei (1 day) ED90 sc / ED50 / ED90 / P. berghei (1 day) ED50 po / P. berghei (1 day) ED90 po / P. berghei (1 day) ED50 sc: 1 day; for ED90: read-out: P. berghei (1 day) ED90 po
[5] = test system: adult S. mansoni; experiment: activity against adult S. mansoni, treated once at day 49 of infection; format: in vivo; conditions: OZ05 200 mg/kg p.o., OZ11 100 mg/kg p.o.
[6] = test system: 21-day-old schistosomules of Schistosoma mansoni; experiment: effect on 21-day-old schistosomules in mice; format: in vivo; conditions: single 200 mg/kg per os; for TWR (%): total worm reduction rate; for FWR (%): female worm reduction rate; for Mean female worm burden: mean ± standard deviation
Description: […] Each group was treated per os with OZ compounds at a single dose of 200 mg/kg. Untreated mice served as the control. All groups were killed 4 weeks after treatment and the liver and intestine were removed and separated. The liver and intestine were compressed and alive male and female worms could be seen and counted. The effect of the compounds was evaluated by mean total and female worm burden.

[7] = test system: adult schistosomes (49-day-old) of Schistosoma mansoni; experiment: effect on adult schistosomes (49-day-old) in mice; format: in vivo; conditions: single 400 mg/kg per os; for TWR (%): total worm reduction rate; for Mean total worm burden: x ± SD
Description: Mice were infected with 100 Schistosoma mansoni cercariae […]. Each group was treated per os with OZ compounds at a single dose of 400 mg/kg. Untreated mice served as the control. All groups were killed 4 weeks after treatment and the liver and intestine were removed and separated. The liver and intestine were compressed and alive male and female worms could be seen and counted.

[8] = test system: NB2a cell line; experiment: neurotoxicity against the NB2a cell line; format: cell-based
[9] = test system: P. berghei; experiment: 4-day Peters test against P. berghei in vivo; conditions: 4 day; for ED50: Plasmodium berghei, 96 h
[10] = test system: parasitemia; experiment: onset of drug action and recrudescence after single oral dose; format: in vivo; conditions: for duration of action compared with artemether: single 100 mg/kg po; for Recrudescence (>5% parasitemia) occurs on day: single 100 mg/kg po on day +3 post-infection
Description: The reduction of parasitemia was monitored 12 h after treatment, and the time of recrudescence was assessed by daily blood smears for 14 days, followed by intermittent assessment for up to 30 days.

[11] = differential scanning calorimetry (DSC), thermal stability; format: physicochemical; conditions: thermal decomposition
[12] = test system: Schistosoma mansoni; experiment: treatment of mice infected with Schistosoma mansoni cercaria, six weekly oral doses; format: in vivo; conditions: for activity in the same assay: artemether at doses four times higher than OZ05, arteflene 6×600 mg/kg p.o., fenozan 6×100 mg/kg p.o.
Excerpt: Mice (MORO SPF female 18-20g) were infected with 90 (±10) cecaria of Schistosoma mansoni subcutaneously.

[13] = single 10 mg/kg po, read-out: Activity (%) po
[14] = single 100 mg/kg po, survival to day 30 = cure
[15] = single 100 mg/kg sc, survival to day 30 = cure
[16] = po, read-out: P. berghei (1 day) ED50 po
[17] = sc, read-out: P. berghei (1 day) ED50 sc
[18] = in vitro, K1 strain, read-out: IC50 (ng/ml) K1
[19] = in vitro, NF54 strain, read-out: IC50 (ng/ml) NF54

CO[C@H]1O[C@@H]2O[C@@]3(C)CC[C@H]4[C@H](C)CC[C@@H]([C@H]1C)[C@@]24OO3 [Artemether, artemether, reference compound]
IC50 ([1]; K1, read-out: IC50 (ng/ml) K1): 0.5 ng/mL (≈ 1.68 nM)
IC50 ([2]; NF54, read-out: IC50 (ng/ml) NF54): 0.37 ng/mL (≈ 1.24 nM)
inhibition in vivo at 10 mg/kg [3, 13]: 98.7%
inhibition in vivo at 10 mg/kg ([3]; single 10 mg/kg sc, read-out: Activity (%) sc): 100%
inhibition in vivo at 100 mg/kg ([3]; single 100 mg/kg po, read-out: Activity (%) po): 100%
inhibition in vivo at 100 mg/kg ([3]; single 100 mg/kg sc, read-out: Activity (%) sc): 100%
Survival (days) po ([3]; single 10 mg/kg po): 8.0 days
Survival (days) sc ([3]; single 10 mg/kg sc): 9.0 days
Survival (days) po [3, 14]: 14.7/14.7 days
Survival (days) sc [3, 15]: 14.7/14.7 days
P. berghei (1 day) ED90 sc ([4]; sc): 2.3 mg/kg
ED50 [4, 16]: 2 mg/kg
ED90 ([4]; po): 4.3 mg/kg
ED50 [4, 17]: 2.1 mg/kg
activity against adult S. mansoni [5]: no activity
TWR (%) [6]: 82.2%
TWR (%) [7]: 31.0%

C[C@H]1[C@@H](O)O[C@@H]2O[C@@]3(C)CC[C@H]4[C@H](C)CC[C@@H]1[C@@]24OO3 [Dihydroart, dihydroartemisinin, reference compound]
IC50 [1, 18]: 0.22 ng/mL (≈ 0.774 nM)
IC50 [2, 19]: 0.23 ng/mL (≈ 0.809 nM)
inhibition in vivo at 10 mg/kg [3, 13]: 80%
Survival (days) po ([3]; single 10 mg/kg po): 6.8/NA days
ED50 [4, 16]: 2.9 mg/kg
ED90 ([4]; po): 12 mg/kg
IC50 [8]: 0.22 µM

C1CCC2(CC1)OOC1(O2)C2CC3CC(C2)CC1C3 (stereo not shown) [OZ03, Adamantane-2-spiro-3′-1′,2′,4′-trioxaspiro[4.5]decane]
IC50 ([1]; K1, read-out: IC50 (ng/ml) K1): 1.2 ng/mL (≈ 4.54 nM)
antimalarial activity, overall assessment [3]: more active
Activity (%) po ([3]; single 10 mg/kg po): 94%
Activity (%) sc ([3]; single 10 mg/kg sc): 100%
Activity (%) po ([3]; single 100 mg/kg po): 100/100%
Activity (%) sc ([3]; single 100 mg/kg sc): 100/100%
Survival (days) po ([3]; single 10 mg/kg po): 7.2 days
Survival (days) sc ([3]; single 10 mg/kg sc): 11.9 days
Survival (days) po [3, 14]: 14.3 days
Survival (days) sc [3, 15]: 28 days
P. berghei (1 day) ED90 sc ([4]; sc): 2.2 mg/kg
ED50 [4, 16]: 5 mg/kg
ED90 ([4]; po): 8.8 mg/kg
ED50 [4, 17]: 0.7 mg/kg
P. berghei (4 day) ED90 po ([9]; po): 2.7 mg/kg
P. berghei (4 day) ED90 sc ([9]; sc): 1.1 mg/kg
ED50 ([9]; po, read-out: P. berghei (4 day) ED50 po): 1 mg/kg
ED50 ([9]; sc, read-out: P. berghei (4 day) ED50 sc): 0.6 mg/kg
IC50 [8]: 13 µM
duration of action compared with artemether [10]: comparable
Recrudescence (>5% parasitemia) occurs on day [10]: 7 days

C1C2CC3CC1CC(C2)C31OOC2(O1)C1CC3CC(C1)CC2C3 (stereo not shown) [OZ04, Adamantane-2-spiro-3′-1′,2′,4′-trioxolane-5′-spiro-2″-adamantane]
antimalarial activity, overall assessment [3]: completely inactive
Activity (%) po ([3]; single 100 mg/kg po): 0/0%
Activity (%) sc ([3]; single 100 mg/kg sc): 0/0%
Survival (days) po [3, 14]: 5.3/5.3 days
Survival (days) sc [3, 15]: 5.3/5.3 days
IC50 ([8]; NB2a cell line): 44 µM
FWR (%) [6]: 7%
Mean female worm burden [6]: 11.6 ± 3.2^a
TWR (%) [6]: 7%
Percentage of dead worm [7]: 0
Total dead worm [7]: 0
TWR (%) [7]: 0%
Mean total worm burden [7]: 37.6 ± 13.4
Tm dec. (° C.) [11]: 150.8 °C

O=C1CCC2(CC1)OOC1(O2)C2CC3CC(C2)CC1C3 (stereo not shown) [OZ05, Adamantane-2-spiro-3′-8′-oxo-1′,2′,4′-trioxaspiro[4.5]decane]
IC50 (ng/ml) K1 ([1]; in vitro, K1 strain): 0.19 ng/mL (≈ 0.683 nM)
antimalarial activity, overall assessment [3]: more active
Activity (%) po ([3]; single 100 mg/kg po): 100/100%
Activity (%) sc ([3]; single 100 mg/kg sc): 100/100%
Survival (days) po [3, 14]: 10.7 days
Survival (days) sc [3, 15]: 30 days
P. berghei (1 day) ED50 po ([4]; po): 3.5 mg/kg
P. berghei (1 day) ED90 po ([4]; po): 7.0 mg/kg
P. berghei (1 day) ED50 sc ([4]; sc): 0.16 mg/kg
P. berghei (1 day) ED90 sc ([4]; sc): 2.3 mg/kg
P. berghei (4 day) ED50 po ([9]; po): 1.5 mg/kg
P. berghei (4 day) ED90 po ([9]; po): 6.1 mg/kg
P. berghei (4 day) ED50 sc ([9]; sc): 0.6 mg/kg
P. berghei (4 day) ED90 sc ([9]; sc): 1.0 mg/kg
IC50 ([8]; NB2a cell line): 31 µM
duration of action compared with artemether [10]: comparable
Recrudescence (>5% parasitemia) occurs on day [10]: 5 days
reduction in parasitaemia ([12]; 100 mg/kg p.o. on days 7, 14, 21, 28, 35, 42, individual mice): 100% and 53%
activity against adult S. mansoni [5]: showed activity
FWR (%) [6]: 88%
Mean female worm burden [6]: 1.5 ± 1.0^b
TWR (%) [6]: 90%
Percentage of dead worm [7]: 13.4 (31/232)
Total dead worm [7]: 31
TWR (%) [7]: 0%
Mean total worm burden [7]: 40.2 ± 13.6
Tm dec. (° C.) [11]: 156.3 °C

CCOC(=O)CCC1CCCCC12OOC1(CCCCC1)O2 (stereo not shown) [OZ07, 1-[2-(Ethoxycarbonyl)ethyl]-7,14,15-trioxadispiro[5.1.5.2]pentadecane]
IC50 [1, 18]: 66 ng/mL (≈ 211 nM)
IC50 [2, 19]: 49 ng/mL (≈ 157 nM)
antimalarial activity, overall assessment [3]: less active
Activity (%) po ([3]; single 100 mg/kg po): 0/0%
Activity (%) sc ([3]; single 100 mg/kg sc): 0/0%
IC50 [8]: 27 µM

CC1(C)COC2(CCC3(CC2)OOC2(O3)C3CC4CC(C3)CC2C4)OC1 (stereo not shown) [OZ11, Adamantane-2-spiro-3′-11′,11′-dimethyl-1′,2′,4′,9′,13′-pentaoxadispiro[4.2.5.2]pentadecane]
P. berghei (1 day) ED50 po ([4]; po): 1.5 mg/kg
P. berghei (1 day) ED90 po ([4]; po): 2.8 mg/kg
P. berghei (1 day) ED90 sc ([4]; sc): NA/0.87 mg/kg
P. berghei (4 day) ED50 po ([9]; po): 1.8 mg/kg
P. berghei (4 day) ED90 po ([9]; po): 3.1 mg/kg
P. berghei (4 day) ED50 sc ([9]; sc): 0.5 mg/kg
P. berghei (4 day) ED90 sc ([9]; sc): 0.9 mg/kg
duration of action compared with artemether [10]: longer
Recrudescence (>5% parasitemia) occurs on day [10]: 10 days
activity against adult S. mansoni [5]: showed activity
FWR (%) [6]: 84%
Mean female worm burden [6]: 2.0 ± 1.9^b
TWR (%) [6]: 85%
Percentage of dead worm [7]: 3.9 (6/156)
Total dead worm [7]: 6
TWR (%) [7]: 16.2%
Mean total worm burden [7]: 30.0 ± 1.9^a
Tm dec. (° C.) [11]: 162.4 °C

C[C@@H]1C(=O)C[C@H]2C[C@@H]1OO[C@@]2(C)/C=C\c1ccc(C(F)(F)F)cc1C(F)(F)F [arteflene, reference compound]
activity in the same assay [12]: inactive

fenozan [reference compound]
IC50 (ng/ml) K1 ([1]; in vitro, K1 strain): 3.2 ng/mL
IC50 (ng/ml) NF54 ([2]; in vitro, NF54 strain): 3.0 ng/mL
Activity (%) po ([3]; single 10 mg/kg po): 99.95%
Activity (%) sc ([3]; single 10 mg/kg sc): 100%
Survival (days) po ([3]; single 10 mg/kg po): 8.6 days
Survival (days) sc ([3]; single 10 mg/kg sc): 13.4 days
P. berghei (1 day) ED50 po ([4]; po): 1.7 mg/kg
P. berghei (1 day) ED90 po ([4]; po): 4.3 mg/kg
P. berghei (1 day) ED50 sc ([4]; sc): 1.7 mg/kg
P. berghei (1 day) ED90 sc ([4]; sc): 3.2 mg/kg
oral activity based on po ED50/ED90 values ([4]; po, ranking among trioxolanes and controls): only slightly less orally active than OZ11
P. berghei (4 day) ED50 po ([9]; po): 1.9 mg/kg
P. berghei (4 day) ED90 po ([9]; po): 2.7 mg/kg
P. berghei (4 day) ED50 sc ([9]; sc): 1.1 mg/kg
P. berghei (4 day) ED90 sc ([9]; sc): 2.3 mg/kg
activity in the same assay [12]: inactive

From US6486199B1, “Spiro and dispiro 1,2,4-trioxolane antimalarials” (Medicines for Malaria Venture MMV International Centre …, priority 2001, dated 2002)
